By IC50 is commonly meant the midpoint of a concentration-inhibition curve. A high value points to lower potency.

The text below walks through data of patent US12187713B2, “Immunomodulators, compositions and methods thereof” (Betta Pharmaceuticals Co., Ltd, priority 2019, dated 2025).

Sequence of PD-1/PD-L1 (Q9NZQ7 19-238): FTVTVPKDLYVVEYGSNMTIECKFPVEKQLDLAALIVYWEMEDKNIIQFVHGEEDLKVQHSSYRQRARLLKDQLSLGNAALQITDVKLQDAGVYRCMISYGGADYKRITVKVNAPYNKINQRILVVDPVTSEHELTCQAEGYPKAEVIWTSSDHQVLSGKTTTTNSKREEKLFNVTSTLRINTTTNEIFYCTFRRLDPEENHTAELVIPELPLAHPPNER

One assay concerns the target PD-1/PD-L1 (Homo sapiens (Human), UniProt Q9NZQ7). As to the kind of experiment: PD-1/PD-L1 Binding Assay (Alphascreen). Particulars: numeric values. Summed up:
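PD-1/PD-L1 binding detected by anti-6×His acceptor and streptavidin donor beads after 120 min in the dark at 25 °C. Beforehand, the two proteins were incubated 15 min at 25 °C with inhibitor at 0.015–300 nM (1% DMSO). IC50 comes from a log concentration–response curve.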
For orientation: In Alpha technology, singlet oxygen from a donor bead excites a nearby acceptor bead.
As for `Cc1c(-c2cnc(CN3CCCC3)c(F)c2)cccc1-c1cccc(-c2nc3cc(CN4CCC[C@H]4C(=O)O)c(OC(F)F)cc3o2)c1C` [Example 265, ((6-(difluoromethoxy)-2-(3′-(5-fluoro-6-(pyrrolidin-1-ylmethyl)pyridin-3-yl)-2,2′-dimethyl-[1,1′-biphenyl]-3-yl)benzo[d]oxazol-5-yl)methyl)-L-proline], the IC50 was found to be 0.73 nM.
`Cc1c(-c2nc3cc(CN4CCC[C@H]4C(=O)O)c(OC(F)F)cc3o2)cccc1-c1cccc(-c2nc3cc(CN4CC(C)(C)C4)cnc3o2)c1C` [Example 113, ((6-(difluoromethoxy)-2-(3′-(6-((3,3-dimethylazetidin-1-yl)methyl)oxazolo[5,4-b]pyridin-2-yl)-2,2′-dimethyl-[1,1′-biphenyl]-3-yl)benzo[d]oxazol-5-yl)methyl)-L-proline] yielded an IC50 of 0.5 nM.
On to `Cc1c(-c2nc3c(o2)CCN(CCO)C3)cccc1-c1cccc(-c2nc3cc(CN4CCC[C@H]4C(=O)O)c(OC(F)F)cc3o2)c1C` [Example 206, ((6-(difluoromethoxy)-2-(3′-(5-(2-hydroxyethyl)-4,5,6,7-tetrahydrooxazolo[4,5-c]pyridin-2-yl)-2,2′-dimethyl-[1,1′-biphenyl]-3-yl)benzo[d]oxazol-5-yl)methyl)-L-proline], for which the IC50 came to 1.4 nM.
Molecule `CCNCc1cc2nc(-c3cccc(-c4cccc(-c5nc6cc(CN7CCC[C@H]7C(=O)O)c(OC(F)F)cc6o5)c4C)c3C)oc2cc1F` [Example 96, ((6-(difluoromethoxy)-2-(3′-(5-((ethylamino)methyl)-6-fluorobenzo[d]oxazol-2-yl)-2,2′-dimethyl-[1,1′-biphenyl]-3-yl)benzo[d]oxazol-5-yl)methyl)-L-proline] had an IC50 of 0.6 nM.
Molecule `Cc1c(-c2cnc(CN3CCCC3)nc2)cccc1-c1cccc(-c2nc3cc(CN4CCC[C@H]4C(=O)O)c(OC(F)F)cc3o2)c1C` [Example 281, ((6-(difluoromethoxy)-2-(2,2′-dimethyl-3′-(2-(pyrrolidin-1-ylmethyl)pyrimidin-5-yl)-[1,1′-biphenyl]-3-yl)benzo[d]oxazol-5-yl)methyl)-L-proline] registered an IC50 of 1.3 nM.
`Cc1c(-c2nc3cc(CN(C)[C@@H]4CCC[C@@H]4O)c(OC(F)F)cc3o2)cccc1-c1cccc(-c2nc3cc(CN4CCC[C@H]4C(=O)O)c(OC(F)F)cc3o2)c1C` [Example 1, ((6-(difluoromethoxy)-2-(3′-(6-(difluoromethoxy)-5-((((1R,2S)-2-hydroxycyclopentyl)(methyl)amino)methyl)benzo[d]oxazol-2-yl)-2,2′-dimethyl-[1,1′-biphenyl]-3-yl)benzo[d]oxazol-5-yl)methyl)-L-proline] came in with an IC50 of 0.89 nM.
`Cc1c(-c2nc3cc(CNCCO)c(OCc4cncc(C#N)c4)cc3o2)cccc1-c1cccc(-c2nc3cc(CN4CCC[C@H]4C(=O)O)c(OC(F)F)cc3o2)c1C` [Example 120, ((2-(3′-(6-((5-cyanopyridin-3-yl)methoxy)-5-(((2-hydroxyethyl)amino)methyl)benzo[d]oxazol-2-yl)-2,2′-dimethyl-[1,1′-biphenyl]-3-yl)-6-(difluoromethoxy)benzo[d]oxazol-5-yl)methyl)-L-proline] came in with an IC50 of 1.1 nM.
Molecule `Cc1c(-c2nc3cc(CN4CC5(C4)CC5(F)F)c(OC(F)F)cc3o2)cccc1-c1cccc(-c2nc3cc(CN4CCC[C@H]4C(=O)O)c(OC(F)F)cc3o2)c1C` [Example 76, ((2-(3′-(5-((1,1-difluoro-5-azaspiro[2.3]hexan-5-yl)methyl)-6-(difluoromethoxy)benzo[d]oxazol-2-yl)-2,2′-dimethyl-[1,1′-biphenyl]-3-yl)-6-(difluoromethoxy)benzo[d]oxazol-5-yl)methyl)-L-proline] yielded an IC50 of 32 nM.
On to `Cc1c(-c2nc3cc(CNCCO)c(OC(F)F)cc3o2)cccc1-c1cccc(-c2nc3cc(CN4CCC[C@H]4C(=O)O)c(OC(F)F)cc3o2)c1C` [Example 7, ((6-(difluoromethoxy)-2-(3′-(6-(difluoromethoxy)-5-(((2-hydroxyethyl)amino)methyl)benzo[d]oxazol-2-yl)-2,2′-dimethyl-[1,1′-biphenyl]-3-yl)benzo[d]oxazol-5-yl)methyl)-L-proline], for which the IC50 was determined as 0.61 nM.
In the case of `Cc1c(-c2nc3cc(CN4CC5(C4)CS(=O)(=O)C5)c(OC(F)F)cc3o2)cccc1-c1cccc(-c2nc3cc(CN4CCC[C@H]4C(=O)O)c(OC(F)F)cc3o2)c1C` [Example 54, ((6-(difluoromethoxy)-2-(3′-(6-(difluoromethoxy)-5-((2,2-dioxido-2-thia-6-azaspiro [3.3]heptan-6-yl)methyl)benzo[d]oxazol-2-yl)-2,2′-dimethyl-[1,1′-biphenyl]-3-yl)benzo[d]oxazol-5-yl)methyl)-L-proline], the IC50 was 6.3 nM.

The same assay, now with this note: range symbols.
Consider `Cc1c(-c2nc3cc(CN4CCC[C@H]4C(=O)O)c(OC(F)F)cc3o2)cccc1-c1cccc(-c2nc3cc(CN4CCC4(C)O)c(OC(F)F)cc3o2)c1C` (stereo partly drawn) [Example 37, ((6-(difluoromethoxy)-2-(3′-(6-(difluoromethoxy)-5-((2-hydroxy-2-methylazetidin-1-yl)methyl)benzo[d]oxazol-2-yl)-2,2′-dimethyl-[1,1′-biphenyl]-3-yl)benzo[d]oxazol-5-yl)methyl)-L-proline], for which the IC50 lay within 0.1 to 5 nM.
On the same count and under the same terms, next, `Cc1c(-c2nc3cc(CN4CC5(COC5)C4)c(OC(F)F)cc3o2)cccc1-c1cccc(-c2nc3cc(CN4CCC[C@H]4C(=O)O)c(OC(F)F)cc3o2)c1C` [Example 47, ((2-(3′-(5-((2-oxa-6-azaspiro[3.3]heptan-6-yl)methyl)-6-(difluoromethoxy)benzo[d]oxazol-2-yl)-2,2′-dimethyl-[1,1′-biphenyl]-3-yl)-6-(difluoromethoxy)benzo[d]oxazol-5-yl)methyl)-L-proline]: 0.1 to 5 nM.
Still for that read-out and setting: for `Cc1c(-c2ccc(CN3CC[C@H](CO)C3)c(C#N)c2)cccc1-c1cccc(-c2nc3cc(CN4CCC[C@H]4C(=O)O)c(OC(F)F)cc3o2)c1C` [Example 240, ((2-(3″-cyano-4″-(((S)-3-(hydroxymethyl)pyrrolidin-1-yl)methyl)-2,2′-dimethyl-[l,1′:3′,1″-terphenyl]-3-yl)-6-(difluoromethoxy)benzo[d]oxazol-5-yl)methyl)-L-proline] the value was 5 to 50 nM; for `Cc1c(-c2nc3cc(CN4CCC[C@@H]4C(=O)O)c(OC(F)F)cc3o2)cccc1-c1cccc(-c2nc3cc(CN4CC(C)(C)C4)cnc3o2)c1C` [Example 170, ((6-(difluoromethoxy)-2-(3′-(6-((3,3-dimethylazetidin-1-yl)methyl)oxazolo[5,4-b]pyridin-2-yl)-2,2′-dimethyl-[1,1′-biphenyl]-3-yl)benzo[d]oxazol-5-yl)methyl)-D-proline], 5 to 50 nM; for `Cc1c(-c2nc3cc(CN4CCC[C@@H]4C(=O)O)c(OC(F)F)cc3o2)cccc1-c1cccc(-c2nc3cc(CN4CC(C)(C)C4)c(OC(F)F)cc3o2)c1C#N` [Example 87, ((2-(2′-cyano-3′-(6-(difluoromethoxy)-5-((3,3-dimethylazetidin-1-yl)methyl)benzo[d]oxazol-2-yl)-2-methyl-[1,1′-biphenyl]-3-yl)-6-(difluoromethoxy)benzo[d]oxazol-5-yl)methyl)-D-proline], 0.1 to 5 nM.
The molecule `Cc1c(-c2nc3c(o2)CN(CCO)CC3)cccc1-c1cccc(-c2nc3cc(CN4CCC[C@H]4C(=O)O)c(OC(F)F)cc3o2)c1C` [Example 189, ((6-(difluoromethoxy)-2-(3′-(5-(2-hydroxyethyl)-4,5,6,7-tetrahydrooxazolo[5,4-c]pyridin-2-yl)-2,2′-dimethyl-[1,1′-biphenyl]-3-yl)benzo[d]oxazol-5-yl)methyl)-L-proline] returned an IC50 of 0.1 to 5 nM.
On to `Cc1c(-c2nc3cc(CN4CC[C@H](C(=O)O)C4)c(OC(F)F)cc3o2)cccc1-c1cccc(-c2nc3cc(CN4CC[C@H](C)C4)cc(C#N)c3o2)c1C` [Example 259, (S)-1-((2-(3′-(7-cyano-5-(((S)-3-methylpyrrolidin-1-yl)methyl)benzo[d]oxazol-2-yl)-2,2′-dimethyl-[1,1′-biphenyl]-3-yl)-6-(difluoromethoxy)benzo[d]oxazol-5-yl)methyl)pyrrolidine-3-carboxylic acid], for which the IC50 fell in the range of 0.1 to 5 nM.
Same read-out and setting: next, `Cc1c(-c2nc3cc(CN4CC5CNCC5C4)c(OC(F)F)cc3o2)cccc1-c1cccc(-c2nc3cc(CN4CCC[C@H]4C(=O)O)c(OC(F)F)cc3o2)c1C` (stereo partly drawn) [Example 50, ((6-(difluoromethoxy)-2-(3′-(6-(difluoromethoxy)-5-((hexahydropyrrolo [3,4-c]pyrrol-2(1H)-yl)methyl)benzo[d]oxazol-2-yl)-2,2′-dimethyl-[1,1′-biphenyl]-3-yl)benzo[d]oxazol-5-yl)methyl)-L-proline]: 0.1 to 5 nM.
Turning to `Cc1c(-c2ccc(CN3CCCC3)c(OCC3CC3)c2)cccc1-c1cccc(-c2nc3cc(CN4CCC[C@H]4C(=O)O)c(OC(F)F)cc3o2)c1C` [Example 250, ((2-(3″-(cyclopropylmethoxy)-2,2′-dimethyl-4″- (pyrrolidin-1-ylmethyl)-[1,1′:3′,1″-terphenyl]-3-yl)-6-(difluoromethoxy)benzo[d]oxazol-5-yl)methyl)proline], the IC50 is 0.1 to 5 nM.
Same read-out and setting: for `Cc1c(Nc2nccc3cc(CNCC4CCC(=O)N4)cnc23)cccc1-c1cccc(-c2nc3cc(CN4CCC[C@H]4C(=O)O)c(OC(F)F)cc3o2)c1C` (stereo partly drawn) [Example 179, ((6-(difluoromethoxy)-2-(2,2′-dimethyl-3′-((3-((((5-oxopyrrolidin-2-yl)methyl)amino)methyl)-1,7-naphthyridin-8-yl)amino)-[1,1′-biphenyl]-3-yl)benzo[d]oxazol-5-yl)methyl)proline] the value was 0.1 to 5 nM.
`Cc1c(-c2nc3cc(CN(C)C)c(OCc4cncc(S(C)(=O)=O)c4)cc3o2)cccc1-c1cccc(-c2nc3cc(CN4CCC[C@H]4C(=O)O)c(OC(F)F)cc3o2)c1C` [Example 123, ((6-(difluoromethoxy)-2-(3′-(5-((dimethylamino)methyl)-6-((5-(methylsulfonyl)pyridin-3-yl)methoxy)benzo[d]oxazol-2-yl)-2,2′-dimethyl-[1,1′-biphenyl]-3-yl)benzo[d]oxazol-5-yl)methyl)-L-proline] registered an IC50 of 0.1 to 5 nM.
